Literature values, collected in US20260069551A1, “Patch for treating demyelinating diseases” (Johannes Gutenberg-Universität Mainz, priority 2022, published 2026).

Test system: injured nerves
Details: 10 mg/kg/day, intraperitoneally injected

In the case of `Cn1c(=O)c2[nH]cnc2n(C)c1=O` [theophylline, 1,3-dimethyl-7H-purine-2,6-dione], the “remyelination of injured nerves” value is given as “significant remyelination”.
